Measured values published in publication PMC7587441, “Plasmodium falciparum Apicomplexan-Specific Glucosamine-6-Phosphate N-Acetyltransferase Is Key for Amino Sugar Metabolism and Asexual Blood Stage Development” (mBio, 2020).

Target: T1, CpGNA1 (Cryptosporidium parvum, UniProt Q5CPU3)
T1 construct: gene SSAT; E. coli BL21 Star; GST cut off with PreScission protease, GPLGS left at N terminus; dimer (sugar site formed by both monomers)
Assay: X-ray crystal structure, […] Å
Type: binding

T1 sequence (Q5CPU3 whole entry): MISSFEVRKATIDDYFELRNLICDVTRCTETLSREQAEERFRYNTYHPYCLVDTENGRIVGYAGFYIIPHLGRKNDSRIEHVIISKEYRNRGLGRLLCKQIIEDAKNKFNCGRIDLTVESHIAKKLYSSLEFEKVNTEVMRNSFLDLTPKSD

SMILES | X-ray crystal structure, 1.95 Å (crystal soaked with 50 mM Glc6P and 50 mM acetyl-CoA, pseudosubstrate in GlcN6P site) | X-ray crystal structure, 1.95 Å (cocrystallized with 10 mM acetyl-CoA, soaked with 50 mM acetyl-CoA and 50 mM Glc6P, acetyl-CoA site)
O=P(O)(O)OC[C@H]1OC(O)[C@H](O)[C@@H](O)[C@@H]1O (some centres unmarked) [Glc6P] | dimeric structure of CpGNA1 in complex with acetyl-CoA and glucose-6-phosphate (Glc6P) | 
CC(=O)SCCNC(=O)CCNC(=O)[C@H](O)C(C)(C)COP(=O)(O)OP(=O)(O)OC[C@H]1O[C@@H](n2cnc3c(N)ncnc32)[C@H](O)[C@@H]1OP(=O)(O)O [acetyl-CoA] |  | dimeric structure of CpGNA1 in complex with acetyl-CoA and glucose-6-phosphate (Glc6P)
